Results taken from the NIST ThermoML archive (doi:10.1016/j.jct.2014.07.023).

Assay: molar heat capacity at constant pressure; xn = mol fraction of the nth substance listed
Conditions: 100 kPa, Liquid, Small sample (50 mg) DSC

CC(O)CCO (stereo not given) [1,3-butanediol] + CO
molar heat capacity at constant pressure [J/K/mol]
Conditions | 293.15 K | 298.15 K | 303.15 K | 308.15 K | 313.15 K | 318.15 K | 323.15 K
x1 = 0.097 | 92.98 | 94.08 | 95.24 | 96.45 | 97.77 | 99.12 | 100.56
x1 = 0.1924 | 105.32 | 106.66 | 108.04 | 109.47 | 110.98 | 112.54 | 114.18
x1 = 0.2893 | 118.06 | 119.57 | 121.13 | 122.79 | 124.45 | 126.21 | 128.02
x1 = 0.3902 | 131.62 | 133.42 | 135.23 | 137.09 | 139 | 140.97 | 142.94
x1 = 0.4943 | 145.68 | 147.68 | 149.69 | 151.69 | 153.82 | 155.95 | 158.19
x1 = 0.6067 | 161 | 163.22 | 165.51 | 167.79 | 170.15 | 172.5 | 174.92
x1 = 0.7843 | 185.37 | 187.93 | 190.57 | 193.28 | 195.92 | 198.72 | 201.51
x1 = 0.9064 | 202.23 | 205.11 | 207.99 | 210.95 | 213.91 | 216.88 | 219.93
x1 = 0.9165 | 203.63 | 206.44 | 209.34 | 212.24 | 215.22 | 218.21 | 221.28
x1 = 0.9242 | 204.61 | 207.52 | 210.44 | 213.44 | 216.44 | 219.44 | 222.53
x1 = 0.9624 | 210.08 | 213.07 | 216.06 | 219.14 | 222.22 | 225.38 | 228.55
x1 = 1 | 215.84 | 218.9 | 222.06 | 225.21 | 228.37 | 231.61 | 234.86

CC(O)C(C)O (stereo not given) [2,3-butanediol] + CO
molar heat capacity at constant pressure [J/K/mol]
Conditions | 293.15 K | 298.15 K | 303.15 K | 308.15 K | 313.15 K | 318.15 K | 323.15 K
x1 = 0.0456 | 86.73 | 87.8 | 88.95 | 90.13 | 91.37 | 92.66 | 94.01
x1 = 0.0847 | 92.44 | 93.66 | 94.92 | 96.21 | 97.54 | 98.95 | 100.35
x1 = 0.1972 | 108.82 | 110.3 | 111.78 | 113.35 | 114.96 | 116.61 | 118.31
x1 = 0.2792 | 121.32 | 122.96 | 124.65 | 126.34 | 128.08 | 129.81 | 131.6
x1 = 0.3824 | 136.66 | 138.56 | 140.46 | 142.41 | 144.36 | 146.37 | 148.43
x1 = 0.4673 | 150.38 | 152.39 | 154.41 | 156.48 | 158.55 | 160.68 | 162.81
x1 = 0.5862 | 168.13 | 170.37 | 172.69 | 174.93 | 177.25 | 179.63 | 182.01
x1 = 0.7041 | 186.64 | 189.05 | 191.46 | 193.94 | 196.41 | 198.89 | 201.45
x1 = 0.8169 | 204.52 | 207.14 | 209.84 | 212.55 | 215.17 | 217.87 | 220.58
x1 = 0.8832 | 214.76 | 217.34 | 220.01 | 222.68 | 225.26 | 227.93 | 230.59
x1 = 0.9271 | 221.76 | 224.59 | 227.34 | 230.18 | 233.01 | 235.93 | 238.77
x1 = 0.9501 | 225.38 | 228 | 230.7 | 233.32 | 236.11 | 238.82 | 241.61
x1 = 1 | 233.95 | 236.66 | 239.36 | 242.07 | 244.77 | 247.47 | 250.18
